The subject of one data set is BT4C gliomas. The data set can be described thus: Ex vivo brain autoradiography, tumor-to-healthy brain uptake ratio. It counts as in vivo. The following applies: ex vivo autoradiography of brain slices, BT4C glioma-bearing BDIX rats. The protocol:
Ex vivo biodistribution studies were performed for [^18F]FGln with a complete organ list and results are listed in the Supplementary Material Some subjects from each radiopharmaceutical imaging group were sacrificed for autoradiographical and histological studies immediately after PET imaging. All autoradiography images were analyzed with Carimas software (Turku PET Centre, Turku, Finland).
The excised brains containing tumors were frozen with liquid nitrogen, sectioned with a Leica CM3050S cryotome into alternating 20 and 8 µm slices on different slides for hematoxylin/eosin and future histochemical staining respectively. […] The slides were then stained with hematoxylin/eosin and digitally scanned with a Pannoramic 250 Flash slide scanner (3DHistech, Budapest, Hungary) Autoradiographs and light micrographs were then aligned in Carimas software (Turku PET Centre, Turku, Finland) and analyzed therein.

Another data set has as its system orthotopic BT4C gliomas. Description: Dynamic PET/CT imaging of orthotopic BT4C gliomas, tumor-to-healthy brain uptake ratio (TBR). Format: in vivo. The following applies: dynamic PET images, both cameras pooled, BT4C glioma-bearing BDIX rats. As to the method:
The 16 glioma-bearing BDIX-Ifz rats (herein "BDIX") for imaging studies (8 weeks old, 9 males and 7 females) were anesthetized under 2-2.5% isoflurane and given buprenorphine (0.01 mg/kg) and carprofen (5 mg/kg) for analgesia during surgery. […] All animals were sacrificed after either the final imaging (PET studies) or the final blood sample collection (metabolism studies) under deep isoflurane anesthesia (4%) via cervical dislocation after cardiac puncture to collect terminal blood samples. […] The injected amount of radioactivity also varied based on camera and radionuclide. […] Each PET image was separately examined, in the initial 20 s of frames for the amino-acid-based radiopharmaceuticals and 40-60 min frames for [^18F]FDG, to manually delineate heart left ventricle cavity voxels to use as a blood radioactivity estimation region of interest (ROI). […] The dynamic PET image data was then extracted from each separate image and converted to standardized uptake values (SUV) which account for ROI volume, mean ROI radioactivity, subject weight, and total injected radioactivity dose (corrected for decay, residual syringe and cannula radioactivity). The results are shown as SUV ROI radioactivity curves over time as well as tumor-to-healthy brain region (TBR) ratios for improved comparisons. […]

Take “2-deoxy-2-[^18F]fluoro-D-glucose [[^18F]FDG]”: the “Tumor-to-healthy brain uptake ratio” value in the data set with BT4C gliomas is given as 2.93 ± 0.57. Moreover, the “Average tumor-to-healthy brain tissue uptake ratio (TBR), maximum” value with orthotopic BT4C gliomas was determined as 1.41 ± 0.11.
